This note sets out measurements from PubChem BioAssay (NCI).

Molecules are shown by their SMILES. “And” between values parts separate entries of the source, which are not always exact repeats. Identical values can stand only once.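 Dose response: 5 concentrations. Exposure: 48 h. Format: 96-well plates. Endpoint: linear interpolation; highest concentration if not reached. Abbreviation: GI50, concentration required for 50% inhibition of growth. TGI: total growth inhibition.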 A value given as a limit tells only on which side of the number the result lay.

The test system of this assay is MDA-MB-468 breast. The assay can be described thus: NCI anticancer screen, dose series, 48 h.

Regarding `Cc1[nH]ccc2cc3nc4ccccc4c3cc12`, the GI50 is 1910 nM and the TGI was 9090 nM.
On to `O=C(NNc1nc2cc(F)cc(F)c2n2cccc12)c1cccnn1`, for which the GI50 is 638 nM and 219 nM; the TGI is 2430 nM and 1470 nM.
For the molecule `Cc1sc2c(c1C)C(c1ccc(Cl)cc1)=N[C@@H](CC(=O)Nc1ccc(O)cc1)c1nnc(C)n1-2`, the GI50 is 212 nM and the TGI was determined as 17800 nM.
Regarding `CO[C@@]12[C@H](COC(N)=O)C3=C(C(=O)C(C)=C(N)C3=O)N1C[C@@H]1N[C@@H]12`, the GI50 was 241 nM and 1010 nM; the TGI was 1300 nM and 4900 nM.
On to `COc1ccc(Cn2cc3c(c2-c2ccccc2)CCc2cncnc2-3)cc1`, for which the GI50 is 3250 nM and the TGI was 11000 nM.
For `COc1cc2c(cc1-c1c(C)noc1C)ncc1[nH]c(=O)n([C@H](C)c3ccccn3)c12`, in that order: 445 nM and greater than 36800 nM.
The like results for `O=C1/C(=C/c2ccc(C(F)(F)F)cc2)COc2ccc(O)cc21` were, in that order, 1530 nM and 3040 nM.
For `C#CCOc1cccc(Nc2ncnc3c2ncn3C2CCN(C(=O)CCl)C2)c1` (stereo not drawn), in that order: 19800 nM and 41000 nM.
On to `Clc1ccc2c(NCCN3CCN(c4ccnc(N5CCCC5)n4)CC3)ccnc2c1`, for which the GI50 is 2050 nM and the TGI was found to be 5090 nM.
`CC(C)(C)n1cc(-c2ccnc(NCCCNS(=O)(=O)c3ccc(Cl)cc3)c2)c(-c2cccc(O)c2)n1`: the GI50 is 1800 nM and the TGI was 4160 nM.
The like results for `CN(C)CCN1C(=O)c2cccc3c(-c4ccc5ncn(C6CCCCC6)c5c4)ccc(c23)C1=O` were, in that order, 1740 nM and 4330 nM.
Consider `c1cc(-c2cnn3nc(N4CCOCC4)ccc23)nc(NC2CC2)n1`, for which the GI50 was 6800 nM and the TGI was 21000 nM.
The like results for `COc1cc(/C=N/O)nc(-c2ccccn2)c1` were, in that order, 307 nM and 1700 nM.
As for `C[C@@H]1CCC2[C@@H](C)[C@H](OC(=O)CCC(=O)NCCNC(=O)Cc3cc(=O)oc4cc(N(C)C)ccc34)O[C@@H]3O[C@]4(C)CC[C@@H]1C23OO4` (stereo partly drawn), the GI50 is 13400 nM and the TGI was determined as 59400 nM.
